Test results as given in US6613879B1, “FAP-activated anti-tumour compounds” (Boehringer Ingelheim Pharma KG, priority 1999, dated 2003).
Residues, ends and D or L forms follow the SMILES beside them. *: point of attachment. NH(4-MeO-2-naphthyl) = COc1cc(N*)cc2ccccc12; AFC = O=c1cc(C(F)(F)F)c2ccc(N*)cc2o1; Cbz = O=C(OCc1ccccc1)*

Legend:
FAPα dimers = molecular target: T1, FAPα dimers (Homo sapiens, UniProt Q12884); details: membrane overlay assay; cited from earlier work
T1 sequence (Q12884 1-760): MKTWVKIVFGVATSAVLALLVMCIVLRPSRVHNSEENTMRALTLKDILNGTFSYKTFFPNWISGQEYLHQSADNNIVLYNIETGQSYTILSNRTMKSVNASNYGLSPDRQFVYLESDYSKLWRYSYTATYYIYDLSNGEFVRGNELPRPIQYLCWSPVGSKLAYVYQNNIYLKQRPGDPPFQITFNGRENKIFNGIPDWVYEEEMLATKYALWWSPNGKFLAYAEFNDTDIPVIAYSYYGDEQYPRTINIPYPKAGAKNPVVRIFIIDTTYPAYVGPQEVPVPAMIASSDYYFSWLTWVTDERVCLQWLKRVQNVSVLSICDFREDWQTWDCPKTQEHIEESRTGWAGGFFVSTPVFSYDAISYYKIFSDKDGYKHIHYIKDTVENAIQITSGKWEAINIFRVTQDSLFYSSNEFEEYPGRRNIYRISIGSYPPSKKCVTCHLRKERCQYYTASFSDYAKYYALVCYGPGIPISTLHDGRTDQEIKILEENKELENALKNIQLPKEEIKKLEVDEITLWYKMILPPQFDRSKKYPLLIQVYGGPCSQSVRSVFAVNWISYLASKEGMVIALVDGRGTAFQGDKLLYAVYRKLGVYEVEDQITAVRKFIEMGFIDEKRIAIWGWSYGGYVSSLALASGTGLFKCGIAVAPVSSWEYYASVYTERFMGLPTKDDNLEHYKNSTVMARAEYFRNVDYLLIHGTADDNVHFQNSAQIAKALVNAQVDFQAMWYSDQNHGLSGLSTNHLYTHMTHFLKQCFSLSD

FAPα = molecular target: T2, FAPα (Homo sapiens, UniProt Q12884); assay: Cleavage specificity of MNA-peptide conjugates, FAPα; format: biochemical; details: release of free MNA
T2 sequence (Q12884 1-760): T1 sequence (Q12884 1-760)
Protocol: (§1) Release of free MNA from the peptides was then measured in a Cytofluor fluorimeter (Per-Septive Biosystems, Inc.) using the 355 nm excitation/405 nm emission filter set.
(§2) Among the-known prolyl-specific serine oligopeptidase family members, the most closely related enzyme to FAPα is DPP-IV. Since active DPP-IV is found in plasma and on many different cell types, optimization of the relative (optional) selectivity of prodrug peptidics for FAPα compared to DPP-IV is necessary to reduce undesirable conversion of the prodrug at sites other than the tumor (e.g., in the plasma). To identify peptides specific for FAPα, cleavage of MNA-coupled peptides by FAPα was compared to the ability of DPP-IV to cleave the same peptide conjugates.

DPP-IV = DPP-IV (Homo sapiens, UniProt P27487); assay: Cleavage specificity of MNA-peptide conjugates, DPP-IV; format: biochemical; details: release of free MNA
Protocol: as §1, §2

[1] = molecular target: T3, FAPα enzyme derived from membrane extracts of the 293-I/2 transfected cells (Homo sapiens, UniProt Q12884); assay: FAPα-catalyzed cleavage of 4-methoxy-β-napthylamide (MNA)-peptide conjugates, enzyme kinetics; format: biochemical; details: release of free MNA, fluorimeter 355 nm/405 nm
T3 construct: made in house; host or cells: human embryonic kidney 293 cells, clone 293-I/2, membrane extract
T3 sequence (Q12884 1-760): T1 sequence (Q12884 1-760)
Protocol: as §1

[2] = molecular target: T4, soluble recombinant FAPα (FAPmCD8 fusion protein) (UniProt P01731+Q12884); assay: Cleavage of doxorubicin-peptide conjugates by soluble recombinant FAPα (HPLC release of free doxorubicin); format: biochemical, human; details: for Cleavage by FAP: after 20 h
T4 construct: the extracellular domain of FAPα (amino acids 27 to 760), generating a fusion protein construct, FAPmCD8; extracellular domain of murine CD8α (Genbank M12825), N-terminal 189 amino acids (N); made in house; host or cells: High Five insect cells, recombinant baculovirus (pVL1393; amplified in Sf9)
Protocol: A soluble recombinant form of FAPα protein was prepared as follows. […] The cDNAs were verified by sequencing and inserted into the pVL1393 vector. […] The culture supernatant of High Five cells infected with recombinant FAPmCD8 baculovirus for four days was collected and cleared by ultracentrifugation. FAPmCD8 fusion protein was purified from such supernatants using an anti-FAPα monoclonal antibody immobilized on activated agarose beads (Pierce Chemical, Indianapolis, Ind., USA). […] The samples were immediately neutralized with a saturated Tris solution (Sigma Chemicals, St. Louis, Mo.) and protein-containing fractions were pooled.
Doxorubicin-peptide conjugate stock solutions (5 mM) were diluted with Hepes-buffered saline pH 7.4 to a final concentration of 50 to 100 μM. Twenty μl of the resulting solution was mixed with 50 μl of purified FAPmCD8 fusion protein (approximately 20 ng) described above and 30 μl Hepes-buffered saline, pH 7.4. The mixture was allowed to incubate at 37° C. for 1 day and release of free doxorubicin was measured in the HPLC assay described. Areas under each peak were quantified using the software package above and the initial value was set to 100%. The rate of release of free doxorubicin was measured by the appearance of a peak with the same retention time as free doxorubicin under these HPLC conditions. The areas under each peak were used to calculate the relative amounts of free doxorubicin to doxorubicin-peptide conjugate.

[3] = molecular target: T5, cell-bound FAPα (FAP-expressing cell line HT1080 clone 33) (Homo sapiens, UniProt Q12884); assay: Release of free doxorubicin by cell-bound FAPα, HT1080 clone 33 cells; format: cell-based; details: 1 μM conjugate, serum-free medium, 19 hours at 37° C.
T5 construct: expressed in transfected cells; host or cells: HT1080 fibrosarcoma cells, clone 33
T5 sequence (Q12884 1-760): T1 sequence (Q12884 1-760)
Protocol: (§3) Mammalian cell lines expressing recombinant FAPα were prepared. HT1080 fibrosarcoma cells, widely known and available from the DSMZ (German Collection of Microorganisms and Cell Cultures, Braunschweig, Germany) under the accession number DSMZ ACC 315, were maintained in a DMEM/F12 mix 50:50 containing 10% fetal bovine serum in an atmosphere of 95% air and 5% CO2. HT1080 cells were transfected with FAP.38 vector (WO 97/34927, Scanlan et al., loc. cit.) using the Lipofectin method according to the manufacturer's instructions (Gibco/BRL). Transfectants were selected for resistance to antibiotics (200 μg/ml Geneticin) and thereafter maintained in medium containing Geneticin. Individual colonies of resistant cells were picked, grown to confluence in 10 cm tissue culture petri dishes and tested for FAPα expression in an immunofluorescence assay using the FAPα-specific monoclonal antibody F19, as described (Garin-Chesa et al. (1990) Proc. Natl. Acad. Sci. USA 87(18), 7235-7239).
(§4) Samples were separated by reversed-phase high performance liquid chromatographic (HPLC) assay that was established to measure cleavage of doxorubicin-peptide conjugates. […] Free doxorubicin and doxorubicin-peptide conjugates were detected by fluorescence (excitation, 475 nm; emission, 585 nm) using a Waters 474 fluorescence detector. […]

[4] = system: parental HT1080 cell line; details: 1 μM conjugate, serum-free medium, 19 hours at 37° C.
Protocol: as §3, §4

T4 sequence (P01731+Q12884 fused): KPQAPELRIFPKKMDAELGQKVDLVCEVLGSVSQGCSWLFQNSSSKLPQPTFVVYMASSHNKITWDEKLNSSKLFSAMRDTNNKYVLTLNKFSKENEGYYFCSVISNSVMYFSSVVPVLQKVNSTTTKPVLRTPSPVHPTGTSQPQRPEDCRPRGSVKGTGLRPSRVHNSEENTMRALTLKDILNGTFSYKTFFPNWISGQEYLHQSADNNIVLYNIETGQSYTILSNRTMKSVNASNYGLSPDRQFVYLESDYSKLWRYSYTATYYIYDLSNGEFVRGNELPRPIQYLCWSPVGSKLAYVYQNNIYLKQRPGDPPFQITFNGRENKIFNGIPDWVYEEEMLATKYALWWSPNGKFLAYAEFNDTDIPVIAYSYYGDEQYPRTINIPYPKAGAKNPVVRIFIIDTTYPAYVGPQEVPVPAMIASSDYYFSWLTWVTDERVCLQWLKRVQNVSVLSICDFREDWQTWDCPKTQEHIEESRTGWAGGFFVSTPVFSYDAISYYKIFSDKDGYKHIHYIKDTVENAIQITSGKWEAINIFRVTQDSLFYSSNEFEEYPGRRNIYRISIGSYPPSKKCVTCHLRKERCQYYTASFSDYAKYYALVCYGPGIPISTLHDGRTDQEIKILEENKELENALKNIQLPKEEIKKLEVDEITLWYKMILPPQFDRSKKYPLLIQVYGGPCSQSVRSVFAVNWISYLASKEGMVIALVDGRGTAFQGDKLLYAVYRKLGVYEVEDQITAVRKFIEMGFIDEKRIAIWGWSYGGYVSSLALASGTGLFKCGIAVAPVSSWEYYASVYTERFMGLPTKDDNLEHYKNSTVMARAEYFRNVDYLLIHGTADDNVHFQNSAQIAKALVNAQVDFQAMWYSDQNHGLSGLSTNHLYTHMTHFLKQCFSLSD
Chain of DPP-IV (P27487 whole entry, species assumed): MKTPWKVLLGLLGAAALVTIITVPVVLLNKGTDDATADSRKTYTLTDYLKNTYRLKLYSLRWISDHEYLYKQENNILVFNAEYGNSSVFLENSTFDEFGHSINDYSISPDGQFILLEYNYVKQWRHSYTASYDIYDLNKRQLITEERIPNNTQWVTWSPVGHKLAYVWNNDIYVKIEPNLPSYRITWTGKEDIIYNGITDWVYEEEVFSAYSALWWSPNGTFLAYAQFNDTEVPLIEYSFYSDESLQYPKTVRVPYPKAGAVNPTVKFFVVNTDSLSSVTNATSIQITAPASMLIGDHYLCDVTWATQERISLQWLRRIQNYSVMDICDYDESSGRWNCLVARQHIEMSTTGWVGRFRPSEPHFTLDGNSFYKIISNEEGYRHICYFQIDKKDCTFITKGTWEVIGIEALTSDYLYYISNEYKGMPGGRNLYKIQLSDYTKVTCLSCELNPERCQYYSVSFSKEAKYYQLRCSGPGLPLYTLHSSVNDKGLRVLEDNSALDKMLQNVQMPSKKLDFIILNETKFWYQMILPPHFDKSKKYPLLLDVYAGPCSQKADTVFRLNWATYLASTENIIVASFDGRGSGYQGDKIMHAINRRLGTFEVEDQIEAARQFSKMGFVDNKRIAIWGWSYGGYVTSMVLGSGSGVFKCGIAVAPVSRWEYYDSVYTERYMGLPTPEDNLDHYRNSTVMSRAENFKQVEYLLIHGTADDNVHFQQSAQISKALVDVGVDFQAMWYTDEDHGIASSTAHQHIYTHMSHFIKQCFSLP

SMILES	Kcat [1] [s⁻¹]	Km [1] [µM]	other results
C[C@H](N)C(=O)N1CCC[C@H]1C(=O)Nc1ccc2c(C(F)(F)F)cc(=O)oc2c1 [Ala-Pro-7-amino-4-trifluoromethyl coumarin] (H-Ala-Pro-{AFC})			cleavage by FAPα dimers (FAPα dimers): able to cleave
COc1cc(NC(=O)C2CCCN2C(=O)C(C)N)cc2ccccc12 (stereo not drawn) [Ala-Pro-MNA]	35.7	267	Cleavage specificity FAP (FAPα): +; Cleavage specificity DPP IV (DPP-IV): +
COc1cc(NC(=O)[C@@H]2CCCN2C(=O)[C@@H](N)CCCNC(=N)N)cc2ccccc12 [Arg-Pro-MNA]	50.6	278	
COc1cc(NC(=O)[C@@H]2CCCN2C(=O)[C@@H](N)C2CCCCC2)cc2ccccc12 [Chg-Pro-MNA]	53.7	75	
COc1cccc2c1C(=O)c1c(O)c3c(c(O)c1C2=O)CC(O)(C(=O)CO)CC3OC1CC(NC(=O)C2CCCN2C(=O)CNC(=O)C(C)NC(=O)C2CCCN2C(=O)OCC2c3ccccc3-c3ccccc32)C(O)C(C)O1 (stereo not drawn) [Fmoc-Pro-Ala-Gly-, Fmoc-Pro-Ala-Gly-Pro-Dox]			Cleavage by FAP [2]: >95%
COc1cc(NC(=O)[C@@H]2CCCN2C(=O)[C@@H](N)CCC(N)=O)cc2ccccc12 [Gln-Pro-MNA]	40.5	273	
NCC(=O)N1CCC[C@H]1C(=O)Nc1ccc2c(C(F)(F)F)cc(=O)oc2c1 [Gly-Pro-7-amino-4-trifluoromethyl coumarin] (H-Gly-Pro-{AFC})			cleavage by FAPα dimers (FAPα dimers): able to cleave
COc1cccc2c1C(=O)c1c(O)c3c(c(O)c1C2=O)CC(O)(C(=O)CO)CC3OC1CC(NC(=O)C2CCCN2C(=O)C(N)C2CCCCC2)C(O)C(C)O1 (stereo not drawn) [H-Chg-, H-Chg-Pro-Dox]			Cleavage by FAP [2]: >95%
COc1cccc2c1C(=O)c1c(O)c3c(c(O)c1C2=O)CC(O)(C(=O)CO)CC3OC1CC(NC(=O)C2CCCN2C(=O)CNC(=O)C(C)NC(=O)C2CCCN2)C(O)C(C)O1 (stereo not drawn) [H-Pro-Ala-Gly-, H-Pro-Ala-Gly-Pro-Dox]			Cleavage by FAP [2]: ca. 11%
COc1cc(NC(=O)[C@@H]2CCCN2C(=O)[C@@H](N)CCCCO)cc2ccccc12 [Hyn-Pro-MNA]	27.4	69	
CC[C@H](C)[C@H](N)C(=O)N1CCC[C@H]1C(=O)Nc1cc(OC)c2ccccc2c1 [Ile-Pro-MNA]	12.6	43	
NCCCC[C@H](N)C(=O)N1CCC[C@H]1C(=O)Nc1ccc2c(C(F)(F)F)cc(=O)oc2c1 [Lys-Pro-7-amino-4-trifluoromethyl coumarin] (H-Lys-Pro-{AFC})			cleavage by FAPα dimers (FAPα dimers): able to cleave
COc1cc(NC(=O)C2CCCN2C(=O)C(N)CCCCN)cc2ccccc12 (stereo not drawn) [Lys-Pro-MNA]	57.1	530	
COc1cc(NC(=O)[C@@H]2CCCN2C(=O)[C@@H](N)CC[S+](C)[O-])cc2ccccc12 (stereo partly drawn) [Met(O)-Pro-MNA]	26.9	378	
COc1cc(NC(=O)[C@@H]2CCCN2C(=O)[C@@H](N)CCSC)cc2ccccc12 [Met-Pro-MNA]	27.9	127	
COc1cc(NC(=O)[C@@H]2CCCN2C(=O)[C@@H]2CCCN2)cc2ccccc12 [Pro-Pro-MNA, Pro-Pro-4-methoxy-β-naphthylamide]	49.5	154	
COc1cc(NC(=O)[C@@H]2CCCN2C(=O)[C@@H](N)CO)cc2ccccc12 [Ser-Pro-MNA]	28.3	872	
COc1cc(NC(=O)[C@@H]2CCCN2C(=O)[C@@H](N)C(C)C)cc2ccccc12 [Val-Pro-MNA]	27.7	95	
COc1cc(NC(=O)C2CCCN2C(=O)CNC(=O)OCc2ccccc2)cc2ccccc12 (stereo not drawn) [Z-Gly-Pro-MNA]			Cleavage specificity FAP (FAPα): +; Cleavage specificity DPP IV (DPP-IV): −
COc1cc(NC(=O)C2CCCN2C(=O)CNC(=O)C(C)NC(=O)C2CCCN2C(=O)OCc2ccccc2)cc2ccccc12 (stereo not drawn) [Z-Pro-Ala-Gly-Pro-MNA] (Cbz-PAGP-{NH(4-MeO-2-naphthyl)}; configuration not given here)			Cleavage specificity FAP (FAPα): +; Cleavage specificity DPP IV (DPP-IV): −
COc1cccc2c1C(=O)c1c(O)c3c(c(O)c1C2=O)C[C@@](O)(C(=O)CO)C[C@@H]3O[C@H]1C[C@H](NC(=O)[C@@H]2CCCN2C(=O)CNC(=O)OCc2ccccc2)[C@H](O)[C@H](C)O1 [ZGP-Dox, N-Cbz-Gly-Pro-Doxorubicin]			conversion of conjugate to free doxorubicin by HT1080 clone 33 [3]: 81%; conversion of conjugate to free doxorubicin after incubation with purified FAPmCD8 fusion protein ([2]; 37° C., 1 day, approximately 20 ng FAPmCD8, Hepes-buffered saline pH 7.4, HPLC (FIG. 1)): could be converted to free doxorubicin; Cleavage by FAP [2]: >95%; conversion of conjugate to free doxorubicin by parental HT1080 cell line [4]: 9%
COc1cccc2c1C(=O)c1c(O)c3c(c(O)c1C2=O)CC(O)(C(=O)CO)CC3OC1CC(NC(=O)C2CCCN2C(=O)CNC(=O)C(C)NC(=O)C2CCCN2C(=O)OCc2ccccc2)C(O)C(C)O1 (stereo not drawn) [ZPAGP-Dox, N-Cbz-Pro-Ala-Gly-Pro-Doxorubicin]			conversion of conjugate to free doxorubicin by HT1080 clone 33 [3]: 43%; Cleavage by FAP [2]: >95%; conversion of conjugate to free doxorubicin by parental HT1080 cell line [4]: Little or no detectable conversion
COc1cc(NC(=O)[C@@H]2CCCN2C(=O)[C@@H]2C[C@@H](O)CN2)cc2ccccc12 [trans-Hyp-Pro-MNA]	37.9	254	
